The values below come from ChEMBL document CHEMBL1128697, “Synthesis of isoornithines and methylputrescines. An evaluation of their inhibitory effects on ornithine decarboxylase” (J Med Chem, 1995).

pKi: −log10 of the molar value.

The target in this assay is T1, Ornithine decarboxylase (Rattus norvegicus, UniProt P09057).
T1 sequence (P09057 whole entry): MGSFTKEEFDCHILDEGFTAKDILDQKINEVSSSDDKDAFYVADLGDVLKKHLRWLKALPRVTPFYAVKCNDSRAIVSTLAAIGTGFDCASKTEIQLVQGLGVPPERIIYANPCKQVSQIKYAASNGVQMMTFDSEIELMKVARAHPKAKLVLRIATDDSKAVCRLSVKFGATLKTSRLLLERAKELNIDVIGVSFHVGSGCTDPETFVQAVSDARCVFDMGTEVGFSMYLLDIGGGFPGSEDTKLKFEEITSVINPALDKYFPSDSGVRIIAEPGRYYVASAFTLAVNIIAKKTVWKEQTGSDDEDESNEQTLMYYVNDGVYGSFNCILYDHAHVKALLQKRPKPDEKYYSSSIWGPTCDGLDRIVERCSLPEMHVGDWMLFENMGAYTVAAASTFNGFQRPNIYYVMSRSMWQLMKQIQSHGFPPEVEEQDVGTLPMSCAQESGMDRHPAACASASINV
Description: Inhibition of liver Ornithine decarboxylase in thioacetamide-treated rat.
`CC(CN)C(C)(C)CN` (stereo unspecified) had a pKi of less than 1.98.
Turning to `CC(C)(CN)CCN`, the pKi is less than 2.00.
In turn, `CC(C)(CN)C(C)(C)CN` gave a pKi of less than 1.96.
Then `CC(C)(CN)C(C)(CN)C(=O)O` (stereo unspecified), with less than 1.96; and `CC(CN)C(C)(CN)C(=O)O` (stereo unspecified), with 2.78; and `CC(C)(CN)C(CN)C(=O)O` (stereo unspecified), with less than 1.96.
The molecule `CC(CN)(CCN)C(=O)O` (stereo unspecified) gave a pKi of less than 1.96.
Then `NCCC(CN)C(=O)O` (stereo unspecified), with 2.75; and `CC(CN)C(CN)C(=O)O` (stereo unspecified), with 3.14; and `CC(CN)C(C)CN` (stereo unspecified), with 2.21.
Then `NCCCCN` [PUTRESCINE], with 2.46.

As a reminder, the pKi is the negative decadic logarithm of the Ki, by convention in mol/L.
